Patent US20180191012A1, “AQUEOUS […]-BASED REDOX FLOW BATTERIES” (UCHICAGO ARGONNE, LLC, priority 2016, published 2018)

Details: 10 mM compound in 0.5 M aqueous NaCl; well-defined, reversible redox waves

c1cc[n+]2c(c1)-c1cccc[n+]1CC2 [A, N,N′-(ethan-1,2-diyl)-2,2′-bipyridinedium dibromide]
redox potential versus Ag/AgCl: −0.60 V
